PMC9187652, “Investigating the ligand agonism and antagonism at the D2long receptor by dynamic mass redistribution” (Scientific Reports, 2022)
Like-named read-outs stand apart in the source and are kept apart here. Marks after values point to notes of the source that are not given here. *1 amine or outer side, *2 acyl side, *3 side chain or, on linkers, in order; H or OH if unused. Where a SMILES comes first, the peptide text is derived from it. Bridges are numbered along the chain shown (N, C = ends). [ ]: non-standard residue; d: D form. The star is where a group is joined. Leu(3R-OH,Nα-propionyl) = CCC(=O)N[C@H](C(=O)*)[C@H](O)C(C)C; X1 = CC(C)[C@@H](O[*:3])[C@H](N[*:1])C(=O)[*:2]; NMeT = CN[C@H](C(=O)O)[C@@H](C)O; dPhLac = O=C(O)[C@H](O)Cc1ccccc1; NMeA = CN[C@@H](C)C(=O)O; NMeDha = C=C(NC)C(=O)O

Assays:
D2long receptors = settings: read-out: EC50 (DMR); cited from earlier work
CHO-K1 hD2longR cells = assay type: cell-based, human
[1] = system: untransfected CHO-K1 cells; experiment: DMR off-target test in untransfected CHO-K1 cells
[2] = target: T1, human dopamine D2long receptor (Homo sapiens, UniProt P14416)
T1 sequence (P14416 whole entry): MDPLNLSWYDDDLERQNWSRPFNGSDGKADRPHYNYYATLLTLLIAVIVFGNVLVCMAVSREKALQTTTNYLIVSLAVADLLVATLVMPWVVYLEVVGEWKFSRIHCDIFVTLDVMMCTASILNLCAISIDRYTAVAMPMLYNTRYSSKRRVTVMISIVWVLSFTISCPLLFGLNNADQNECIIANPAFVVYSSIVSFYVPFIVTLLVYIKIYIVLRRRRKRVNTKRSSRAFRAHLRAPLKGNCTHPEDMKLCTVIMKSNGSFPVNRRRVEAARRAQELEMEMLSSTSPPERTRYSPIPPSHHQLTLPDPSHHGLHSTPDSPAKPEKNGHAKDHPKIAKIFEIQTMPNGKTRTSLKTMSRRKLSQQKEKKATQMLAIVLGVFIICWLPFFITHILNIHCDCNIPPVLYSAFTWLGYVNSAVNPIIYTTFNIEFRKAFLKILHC

[3] = target: T1, human dopamine D2long receptor; experiment: cell-based; settings: CHO-K1, read-out: DMR Emax (%)
[4] = target: T1, human dopamine D2long receptor; remark: listed apart in the source
hD2longR [5] = target: T2, hD2longR (Homo sapiens, UniProt P14416); assay type: cell-based
T2 sequence (P14416 whole entry): as above

D2R = settings: cited from earlier work; for Emax, [35S]GTPγS binding: relative to dopamine
hD2longR [6] = target: T2, hD2longR; settings: cited from earlier work
[7] = CHO-K1 hD2longR cells pretreated with the agent (PTX, CTX about 20 h; FR900359 2 h; forskolin 1 μM 40 min; EGTA 2 mM in assay buffer)

## NCCc1ccc(O)c(O)c1 [Dopamine, dopamine]
D2long receptors
  EC50: 11 nM

## O=C(O)CN(CCOCCOCCN(CC(=O)O)CC(=O)O)CC(=O)O [EGTA]
CHO-K1 hD2longR cells; [7]
  effect on the quinpirole induced DMR response: completely abrogated the quinpirole-induced response

## C=C1C(=O)N[C@@H](C)C(=O)N(C)[C@@H](C)C(=O)N[C@@H]([C@H](OC(=O)[C@@H](NC(=O)CC)[C@H](O)C(C)C)C(C)C)C(=O)N(C)[C@@H]([C@@H](C)OC)C(=O)O[C@H](C(C)C)[C@H](NC(C)=O)C(=O)O[C@H](Cc2ccccc2)C(=O)N1C [FR900359] (Ac-[X1][dPhLac][NMeDha]A[NMeA][X1](Leu(3R-OH,Nα-propionyl))[NMeT](Me); ester 1-C)
CHO-K1 hD2longR cells
  DMR response induced by the agent alone in CHO-K1 hD2longR cells: did not induce a DMR response
CHO-K1 hD2longR cells; [7]
  effect on the quinpirole induced DMR response: did not show a pronounced effect

## O=C(CCCN1CCC(O)(c2ccc(Cl)cc2)CC1)c1ccc(F)cc1 [Haloperidol, haloperidol]
[1]
  DMR response in untransfected CHO-K1 cells (off-target activity): slight negative DMR response

## CNc1cc(OC)c(C(=O)NC2CCN(Cc3ccccc3)C2C)cc1Cl (centres unmarked) [Nemonapride, nemonapride]
[2]
  Hill Slope of inhibition curve: −1.95
[1]
  DMR response in untransfected CHO-K1 cells (off-target activity): slight negative DMR response

## CCCN[C@H]1CCc2nc(N)sc2C1 [Pramipexole, pramipexole]
D2long receptors
  EC50: 8.7 nM
[3]
  Emax: 97 ± 0.1%
[4]
  quality of action in the DMR assay (full / partial agonist): full agonists

## CCN1CCC[C@H]1CNC(=O)c1cc(S(N)(=O)=O)ccc1OC [S-(−)-sulpiride]
[2]; antagonist mode, versus 30 nM quinpirole
  Hill Slope of inhibition curve: −1.18

## C=C[C@@]1(C)CC(=O)[C@]2(O)[C@@]3(C)[C@@H](O)CCC(C)(C)[C@@H]3[C@H](O)[C@H](OC(C)=O)[C@@]2(C)O1 [forskolin]
CHO-K1 hD2longR cells; [7]
  effect on the quinpirole induced DMR response: increase in quinpirole efficacy
CHO-K1 hD2longR cells; forskolin alone
  time of minimum of the forskolin DMR signal: about 5 min
CHO-K1 hD2longR cells; without quinpirole, thapsigargin in EGTA (2 mM) containing buffer, forskolin 1 μM
  DMR response induced by the agent alone in CHO-K1 hD2longR cells: negative DMR signal
hD2longR [5]; forskolin 1 μM for 40 min
  effect on receptor expression ([3H]N-methylspiperone binding): did not exhibit a marked effect on the receptor expression
hD2longR [5]; forskolin 1 μM for 20 h
  effect on receptor expression ([3H]N-methylspiperone binding): strong increase in specific radioligand binding

## C/C=C(/C)C(=O)O[C@H]1C(C)=C2[C@H]([C@@H]1OC(=O)CCCCCCC)[C@@](C)(OC(C)=O)C[C@H](OC(=O)CCC)[C@@]1(O)[C@H]2OC(=O)[C@@]1(C)O [thapsigargin]
CHO-K1 hD2longR cells
  DMR response induced by the agent alone in CHO-K1 hD2longR cells: rapidly decreasing negative DMR signal
CHO-K1 hD2longR cells; EGTA containing assay buffer
  time to plateau of the thapsigargin-induced negative DMR signal: approximately 15 min
CHO-K1 hD2longR cells; thapsigargin (1 μM or 2 μM, 20 min) in combination with EGTA (2 mM)
  effect on the quinpirole induced DMR response: completely abrogated the quinpirole-induced response

## R-(−)-apomorphine
D2R; ref 42
  pEC50, [35S]GTPγS binding: 7.66
  Emax, [35S]GTPγS binding: 53%
D2R; ref 49
  pEC50, [35S]GTPγS binding: 6.76
  Emax, [35S]GTPγS binding: 90%
[1]
  DMR response in untransfected CHO-K1 cells (off-target activity): did not elicit a DMR signal
[4]
  DMR Emax (%): 102 ± 5%
  quality of action in the DMR assay (full / partial agonist): full agonist
hD2longR [6]
  β-arrestin2 recruitment Emax (%): 87 ± 3^a %

## cholera toxin [CTX]
CHO-K1 hD2longR cells
  DMR response induced by the agent alone in CHO-K1 hD2longR cells: did not induce a DMR response
  effect on the quinpirole induced DMR response: apparent increase in quinpirole efficacy
hD2longR [5]
  effect on receptor expression ([3H]N-methylspiperone binding): slight up-regulation

## pertussis toxin [PTX]
CHO-K1 hD2longR cells
  DMR response induced by the agent alone in CHO-K1 hD2longR cells: did not induce a DMR response
CHO-K1 hD2longR cells; [7]
  effect on the quinpirole induced DMR response: concentration-dependent decrease in the DMR response
